Patent US20090226412A1, “AGENT FOR REDUCTION OF BLEEDING IN CEREBROVASCULAR DISORDER” (ONO PHARMACEUTICAL CO., LTD.,, priority 2005, published 2009)
Like-named read-outs stand apart in the source and are kept apart here.

Experiments:
[1] = rat, in vivo, iv, 30 mg/kg
Procedure: (§2) A rat (male Sprague Dawley (SD) rat, 7 weeks old; Shimizu Laboratory Supplies Co., Ltd. (SLC))) was anesthetized with urethane (1.2 g/6 mL/kg, i.p.), and then the animal was placed on an incubation mat (Microtemp, Seabrook Medical Systems) set to 37° C. after indwelling a catheter (EMS cutdown tube, JMS Co., Ltd.) made of vinyl chloride in a left femoral vein for administration of a test substance. […] Five minutes after the administration, a tip of the tail was cut at the position of 2 mm with a razor (single-edged feather), and immediately, the tail was immersed in saline (Otsuka normal saline) warmed to 37° C. Finally, the time until the hemorrhage was stopped (30 minutes at a maximum) was measured, which was regarded as bleeding time.

[2] = system: cerebral hemorrhage model with the use of SHR; test: Cerebral hemorrhage in MCA occlusion-recanalization model, intracerebral hemoglobin by Drabkin's reagent; type: in vivo, rat; settings: 3 mg/kg/h continuous i.v. for 9 hours right after occlusion; measured 24 hours after MCA occlusion; sham 13.0±1.1, saline 25.5±2.2
Procedure: (§1) For the animal, a male spontaneously hypertensive rat (hereinafter abbreviated to SHR) (14 to 15 week old); Japan Charles River) was used. The preparation of middle cerebral artery (hereinafter abbreviated to MCA) occlusion-recanalization model of rat was performed according to the method of Koizumi, et al., (in Stroke 8: 1-7, 1986). In particular, the rat was subjected to anesthetic induction by 4% halothane (halothane vaporizer, Shinano Co., Ltd.) in 30% oxygen/70% air. The anesthesia was maintained by means of 2.5% halothane. The animal was placed in a dorsal position. The dissection of anterior neck midline was performed, the left side of the common carotid artery and the external carotid artery were exfoliated from the surrounding connective tissue around the left carotid artery bifurcation, and then a thread was hooked around the artery to ligate, respectively. Afterwards, the left internal carotid artery was exfoliated from the surrounding connective tissue, and then a thread was hooked around the artery. […] An amount of cerebral hemorrhage was measured 24 hours after the MCA occlusion.
An amount of cerebral hemorrhage was measured on the basis of the content of intracerebral hemoglobin (Hb) as an indicator according to a method of Asahi et al. (J Cereb Blood Flow Metab 20: 452-457, 2000)). […] Afterwards, absorbance was measured at 540 nm of photometry wavelength. […]

[3] = system: normal human umbilical cord vein endothelial cell; test: Effect on vascular endothelial cell death induced by hydrogen peroxide (WST-1 method); type: cell-based; settings: 0.5 mM hydrogen peroxide, 6 hours, compound added 15 minutes before
Procedure: A normal human umbilical cord vein endothelial cell (Cat. No. CRL-1730; Dainippon Pharmaceutical Co., Ltd.) was cultured in serum-containing liquid culture medium for vascular endothelial cell (Nissui Pharmaceutical Co., Ltd.) under conditions of 37° C., 5% CO2. The exchange of the culture fluid was performed every other day. The cells proliferated to confluent state were sub-cultured. 5×10^4 cells/mL of cell suspension was disseminated in an amount of 500 μL/well to a gelatin-coated 24 well plate (Iwaki). A few days later, the culture medium was removed after confirming that the cells were proliferated to confluent state, and changed to 480 μL/well of Dulbecco's Modified Eagle's Medium (DMEM; GIBCO-BRL)). The compound A was adjusted to become 50 times larger than the addition final concentration in DMEM after the dissolution of the compound A to dimethyl sulfoxide (DMSO). The sterilization was performed by using 0.22 μm filter for filtration sterilization (Millex, MILLIPORE). […]
The evaluation was performed by means of WST-1 method (modulated MTT method) with the use of Cell Counting Kit (DOJINDO). […] After that, 200 μL/well of the culture supernatant was collected, and then the absorbance (450 nm) was measured. The cell death inhibitory rate of the test substance treated group was calculated, regarding that the cell survival rate of the control group (untreated group) as a standard (100%).

[4] = system: cerebral hemorrhage model with the use of SHR; test: Cerebral hemorrhage in MCA occlusion-recanalization model, intracerebral hemoglobin by ELISA; type: in vivo, rat; settings: 24 hours after MCA occlusion, sham 4.5±0.74, saline 19.6±2.21
Procedure: as §1, with “artery. The range of about 5 mm from the tip of a 4-0 nylon thread for surgery (NC sterilization operation thread, Nichiyo industry Co., Ltd.) (25 mm long) was silicon-coated with an impression material for dentistry (mixture solution of XANTOPREN VL plus and OPTOSIL-XANTOPREN ACTIVATOR, Heraeus Dental Material Co., Ltd.). Then the thread was inserted to the left carotid artery from the left carotid artery bifurcation. Then, the origin part of the left MCA was occluded by means of fixing with a Sugita type clip (Mizuho Medical Industry Co., Ltd.). Nine hours after the occlusion, rat was subjected to anesthetic induction with 4% halothane in 30% oxygen/70% air. The anesthesia was maintained by means of 2.5% halothane.” for “artery.”
In addition, intracerebral hemoglobin content can be also measured by using the following methods, in particular, an enzyme-linked immunosorbent assay (ELISA). […]

[5] = Influence of PARP inhibitor on bleeding time (rat tail cut); settings: male SD rat, intravenous bolus, tail tip cut 5 minutes after administration, 30 minutes at a maximum; compound A 30 mg/kg, heparin 100 U/kg; saline control about 15 minutes
Procedure: as §2

| Molecule | bleeding time [1] | content of intracerebral hemoglobin [2] [µL] | inhibitory effect of the vascular endothelial cell disorder (cell death inhibitory rate) [3] | content of intracerebral hemoglobin ([4]; 1 mg/kg/h) [µg/mL] | content of intracerebral hemoglobin ([4]; 3 mg/kg/h) [µg/mL] | content of intracerebral hemoglobin ([4]; 10 mg/kg/h) [µg/mL] | bleeding time [5] [min] |
| --- | --- | --- | --- | --- | --- | --- | --- |
| O=C(Cc1n[nH]c(=O)c2c1CCCC2)NCCCCN1CCOCC1 [compound A, 4-(N-(4-(morpholin-4-yl)butyl)carbamoylmethyl)-5,6,7,8-tetrahydrophthalazin-1(2H)-one] | about 15 minutes | 17.7 ± 1.3 | showed an inhibitory effect of the vascular endothelial cell disorder dose-dependently | 15.4 ± 2.19 | 15.5 ± 2.14 | 10.3 ± 1.24 | – |
| heparin | – | – | – | – | – | – | ≥ 30 |
